Test results reported in US20130261045A1, “GREEN TEA POLYPHENOL ALPHA SECRETASE ENHANCERS AND METHODS OF USE” (UNIVERSITY OF SOUTH FLORIDA, priority 2005, published 2013).

Legend:
APP cleavage processing = experiment: Western blot/immunoprecipitation of APP cleavage (CTFs, sAPP-α, holo APP) in APP-transfected N2a cells; type: cell-based, murine
Description: Cell cultured supernatants were collected and cell lysates were prepared from these cultured cells.
Cultured cells and mouse brain were lysed in ice-cold lysis buffer described above, and an aliquot corresponding to 50 μg of total protein was electrophoretically separated using 16.5% Tris-tricine gels. Electrophoresed proteins were then transferred to PVDF membranes (Bio-Rad), washed in dH2O, and blocked for 1 hour at ambient temperature in Tris-buffered saline (TBS; Bio-Rad) containing 5% (w/v) for non-fat dry milk. After blocking, membranes were hybridized for 1 hour at ambient temperature with various antibodies, including against the C- (369), N-terminus of APP (22C11), the N-terminus of Aβ (6E10), and ADAM10 and TACE (Calbiochem). Membranes were then washed 3× for 5 min each in dH2O and incubated for 1 hour at ambient temperature with the appropriate HRP-conjugated secondary antibody (1:1,000, Pierce Biotechnology, Inc. Rockford, Ill.). All antibodies were diluted in TBS containing 5% (w/v) of non-fat dry milk. Blots were developed using the luminal reagent (Pierce Biotechnology). Densitometric analysis was done using the Fluor-S Multimager™ with Quantity One™ software (Bio-Rad). Immunoprecipitation was performed for detection of sAPP-α, sAPP-β and Aβ by incubating 200 μg of total protein of each sample with 6E10 (1:100; Signet) or 22C11 (1:100; Roche, Basel, Switzerland) overnight with gentle rocking at 4° C., and 10 μL of 50% protein A-Sepharose beads were then added to the sample (1:10; Sigma) prior to gentle rocking for an additional 4 hours at 4° C. Following washes with 1× cell lysis buffer, samples were subjected to Western blot as described above. Antibodies used for Western blot included antibody 369 (1:1,000), anti-C-terminal APP antibody (1:500; Chemicon, Temecula, Calif.), BAM-10 (1:1,000; Sigma), 6E10 (1:1,000; Signet) or anti-Actin antibody (1:1,500; as an internal reference control; Roche). α-, β- and γ-secretase activities were quantified in cell lysates and mouse brain homogenates using available kits based on secretase-specific peptides conjugated to fluorogenic receptor molecules (R&D Systems, Minneapolis, Minn.).

Aβ1-40 and Aβ1-42 [1] = experiment: Aβ1-40/Aβ1-42 ELISA, Tg2576 mouse-derived primary neuronal cells; type: cell-based; details: Tg2576 primary neurons; various doses, 8 h
Aβ1-40 and Aβ1-42 [2] = experiment: Aβ1-40/Aβ1-42 ELISA, conditioned media of SweAPP N2a cells (Examples 6-7, with or without siRNA knock-down); type: cell-based, murine; details: various doses of EGCG, 8 h
Description: FIGS. 8A-8H show EGCG-induced ADAM10 activation correlates with APP α-secretase cleavage in vitro. […] Data were represented as % change relative to control (medium from cultured SweAPP N2a cells or primary neuronal cells without any treatment).
FIGS. 10A-10C show ADAM10 is required for EGCG-induced APP α-secretase cleavage. […] In FIG. 10A, cell lysates were subjected to WB for APP CTFs and ADAM10 cleavage analyses. […] In FIG. 10B, cell culture media were subjected to WB for sAPP-α secretion. […] In FIG. 10C, cell culture media were subjected to Aβ ELISA. Data are represented as % change relative to control (medium from cultured SweAPP N2a cells without any treatment). […]
Conditioned media were collected and analyzed at a 1:1 dilution using the method as previously described (Tan et al., 2002) and values were reported as percentage of Aβ1-x secreted relative to control. Quantitation of total Aβ species was performed according to published methods (Marambaud, P. et al., 2005). […] The optical density of each well was immediately determined by a microplate reader at 450 nm. In addition, Aβ1-40, or Aβ1-42 was separately quantified in these samples using the Aβ1-40 Aβ1-42 ELISA kits (IBL-America, Minneapolis, Minn.) in accordance with the manufacturer's instructions. In all cases, Aβ levels were expressed as a percentage of control (conditioned medium from untreated SWeAPP N2a cells). […]

In the case of `O=C(O[C@@H]1Cc2c(O)cc(O)cc2O[C@@H]1c1cc(O)c(O)c(O)c1)c1cc(O)c(O)c(O)c1` [EGCG, (−)-epigallocatechin-3-gallate], the “secreted form of APP-α (sAPP-α) in cell cultured medium” value (APP cleavage processing; 20 μM for 18 hours) is reported as “markedly increased”, the “total APP and holo APP expression” value (APP cleavage processing; EGCG treated cells) is reported as “not any changes” and the “α-CTF generation, time course” value (APP cleavage processing; in 3 to 4 hours and then through to 8 hours after EGCG treatment) is reported as “drastically increased”. For the same compound, the Aβ1-40 levels (Aβ1-40 and Aβ1-42 [1]) was “dose-dependent reductions”, the Aβ1-42 levels (Aβ1-40 and Aβ1-42 [1]) was “dose-dependent reductions” and the Aβ1-40 concentration (Aβ1-40 and Aβ1-42 [2]) was “dose-dependent reductions”. The Aβ1-42 concentration (Aβ1-40 and Aβ1-42 [2]) was “dose-dependent reductions”.
